Experimental data published in US20250270198A1, “PYRIDONE COMPOUNDS AS TRPA1 INHIBITORS” (D. E. Shaw Research, LLC, priority 2022, published 2025).

Target: human TRPA1 channel (Homo sapiens (Human), UniProt O75762)
Test: TRPA1 inhibitor activity, automated patch clamp (SyncroPatch)
Format: cell-based
Conditions: CHO cells inducibly expressing human TRPA1, currents elicited by carvacrol (300 μM), holding potential −60 mV
Procedure: This assay was used to evaluate the disclosed compounds' inhibition activities against the human TRPA1 channel.
CHO cells inducibly expressing human TRPA1 were grown in DMEM containing 10% heat-inactivated FBS, 1 mM Sodium Pyruvate, 2 mM L-Glutamine, Zeocin (100 μg/ml) and Blasticidin (10 μg/ml). Expression was induced by addition of Doxycycline (1 μg/ml) 24 hours before experiments. Cells used for electrophysiology were plated in plastic culture flasks and grown at 37° C. in a 5% CO2-humidified tissue culture incubator per ChanPharm SOP. Stocks were maintained in cryogenic storage.
The cells were bathed in an extracellular solution containing 80 mM NaCl, 60 mM NMDG, 4 mM KCl, 2 mM CaCl2), 6 mM MgCl2, 5 mM Glucose. 10 mM HEPES, 3 mM HEDTA; pH adjusted to 7.4 with NaOH; 305-310 mOsm. All compounds were dissolved in DMSO at 30 mM. The internal solution contained 10 mM CsCl, 110 mM CsF, 10 mM NaCl, 10 mM EGTA, 10 mM HEPES, 4 mM MgATP, 0.25 mM NaGTP, 4 mM BAPTA; pH adjusted to 7.2 with CsOH; 285-290 mOsm. Compound stock solutions were freshly diluted with external solution to concentrations of 3 nM, 10 nM 30 nM, 100 nM, 300 nM, 1 μM, 3 μM, 10 μM, and 30 μM. The highest content of DMSO (0.1%) was present at 30 μM.
All experiments were performed at room temperature. Each cell acted as its own control. In preparation for a current recording session, intracellular solution (see above) was loaded into the intracellular compartments of the automated patch clamp platform SyncroPatch (Nanion) chip and the cell suspension was pipetted into the extracellular compartments. After establishment of a whole-cell configuration, membrane current recordings and compound application were enabled by means of the SyncroPatch. TRPA1 currents were elicited by application of carvacrol (300 μM) at a constant holding potential of −60 mV (see Table A below).
To determine IC50 values, AUC and peak values, obtained in the presence of a given compound concentration, were normalized to control values in absence of compound. Using DataControl384 (Nanion's proprietary software), IC50 values were derived by fitting the normalized data to the Hill equation.

Sequence of human TRPA1 channel (O75762 whole entry): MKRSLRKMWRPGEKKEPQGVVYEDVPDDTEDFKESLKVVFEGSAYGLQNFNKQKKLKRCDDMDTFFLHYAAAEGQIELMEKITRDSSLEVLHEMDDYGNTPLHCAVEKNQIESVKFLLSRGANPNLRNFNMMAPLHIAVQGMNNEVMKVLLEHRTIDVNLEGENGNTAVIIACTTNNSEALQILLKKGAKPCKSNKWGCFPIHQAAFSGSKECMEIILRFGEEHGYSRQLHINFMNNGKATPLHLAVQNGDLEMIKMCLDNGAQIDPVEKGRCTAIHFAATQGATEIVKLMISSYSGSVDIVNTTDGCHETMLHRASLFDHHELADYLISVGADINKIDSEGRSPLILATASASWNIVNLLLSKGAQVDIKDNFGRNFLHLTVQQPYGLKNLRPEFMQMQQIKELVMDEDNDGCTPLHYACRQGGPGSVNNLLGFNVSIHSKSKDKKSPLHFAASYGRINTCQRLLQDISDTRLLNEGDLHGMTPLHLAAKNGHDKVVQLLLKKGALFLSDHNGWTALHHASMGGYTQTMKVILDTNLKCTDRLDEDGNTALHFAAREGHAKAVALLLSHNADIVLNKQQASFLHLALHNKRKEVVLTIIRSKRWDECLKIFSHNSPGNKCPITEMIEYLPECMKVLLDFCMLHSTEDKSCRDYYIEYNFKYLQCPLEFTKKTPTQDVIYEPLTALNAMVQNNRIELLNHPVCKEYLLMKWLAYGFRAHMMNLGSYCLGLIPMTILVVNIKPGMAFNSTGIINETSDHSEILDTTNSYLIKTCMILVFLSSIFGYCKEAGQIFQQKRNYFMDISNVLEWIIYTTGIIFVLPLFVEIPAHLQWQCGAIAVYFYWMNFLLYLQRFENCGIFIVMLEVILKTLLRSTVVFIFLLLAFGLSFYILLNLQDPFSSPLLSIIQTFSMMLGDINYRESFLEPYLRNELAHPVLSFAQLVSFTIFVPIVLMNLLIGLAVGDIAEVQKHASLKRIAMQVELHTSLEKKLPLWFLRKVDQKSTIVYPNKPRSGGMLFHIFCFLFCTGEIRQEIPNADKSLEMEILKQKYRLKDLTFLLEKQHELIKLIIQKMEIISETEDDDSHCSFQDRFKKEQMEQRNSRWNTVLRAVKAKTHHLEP

SMILES | IC50 (Table 4) | IC50 (Table 5)
Cc1c(-c2cn[nH]c2)ccn(Cc2nc(CCc3ccc(Cl)cc3)no2)c1=O [Compound 15, 1-((3-(4-chlorophenethyl)-1,2,4-oxadiazol-5-yl)methyl)-3-methyl-4-(1H-pyrazol-4-yl)pyridin-2(1H)-one] | < 3000 nM | –
NC(=O)c1ncn(Cc2nc(C[C@H](O)c3ccc(Cl)cc3)no2)c(=O)c1Cl [Compound 62, (S)-5-chloro-1-((3-(2-(4-chlorophenyl)-2-hydroxyethyl)-1,2,4-oxadiazol-5-yl)methyl)-6-oxo-1,6-dihydropyrimidine-4-carboxamide] | – | < 1000 nM
Cc1cc(CC(N)=O)cn(Cc2nc(CCc3ccc(Cl)cc3)no2)c1=O [Compound 20, 2-(1-((3-(4-chlorophenethyl)-1,2,4-oxadiazol-5-yl)methyl)-5-methyl-6-oxo-1,6-dihydropyridin-3-yl)acetamide] | < 10000 nM | –
Cc1nccn(Cc2nc(CCc3ccc(Cl)cc3)no2)c1=O [Compound 25, 1-((3-(4-chlorophenethyl)-1,2,4-oxadiazol-5-yl)methyl)-3-methylpyrazin-2(1H)-one] | < 3000 nM | –
Cc1c(CO)ccn(Cc2nc(CCc3ccc(Cl)cc3)no2)c1=O [Compound 11, 1-((3-(4-chlorophenethyl)-1,2,4-oxadiazol-5-yl)methyl)-4-(hydroxymethyl)-3-methylpyridin-2(1H)-one] | < 3000 nM | –
C=Cc1ccn(Cc2nc(CCc3ccc(Cl)cc3)no2)c(=O)c1C [Compound 13, 1-((3-(4-chlorophenethyl)-1,2,4-oxadiazol-5-yl)methyl)-3-methyl-4-vinylpyridin-2(1H)-one] | < 3000 nM | –
Cc1ncn(Cc2nc(C[C@H](O)c3ccc(Cl)cc3)no2)c(=O)c1C [Compound 68, (S)-3-((3-(2-(4-chlorophenyl)-2-hydroxyethyl)-1,2,4-oxadiazol-5-yl)methyl)-5,6-dimethylpyrimidin-4(3H)-one] | – | < 300 nM
O=c1c(C(F)(F)F)cccn1Cc1nc(CCc2ccc(Cl)cc2)no1 [Compound 7, 1-((3-(4-chlorophenethyl)-1,2,4-oxadiazol-5-yl)methyl)-3-(trifluoromethyl)pyridin-2(1H)-one] | < 10000 nM | –
O=c1c(Cl)c(Cl)ncn1Cc1nc(C[C@H](O)c2ccc(Cl)cc2)no1 [Compound 64, (S)-5,6-dichloro-3-((3-(2-(4-chlorophenyl)-2-hydroxyethyl)-1,2,4-oxadiazol-5-yl)methyl)pyrimidin-4(3H)-one] | – | < 100 nM
COC(=O)c1cc(C)c(=O)n(Cc2nc(CCc3ccc(Cl)cc3)no2)c1 [Compound 10, methyl 1-((3-(4-chlorophenethyl)-1,2,4-oxadiazol-5-yl)methyl)-5-methyl-6-oxo-1,6-dihydropyridine-3-carboxylate] | < 3000 nM | –
Nc1c(Cl)c(F)n(Cc2nc(C[C@H](O)c3ccc(Cl)cc3)no2)c(=O)c1Cl [Compound 28, (S)-4-amino-3,5-dichloro-1-((3-(2-(4-chlorophenyl)-2-hydroxyethyl)-1,2,4-oxadiazol-5-yl)methyl)-6-fluoropyridin-2(1H)-one] | < 1000 nM | –
Cc1cc(Cl)cn(Cc2nc(CCc3ccc(Cl)cc3)no2)c1=O [Compound 5, 5-chloro-1-((3-(4-chlorophenethyl)-1,2,4-oxadiazol-5-yl)methyl)-3-methylpyridin-2(1H)-one] | < 3000 nM | –
Cc1c(Br)ccn(Cc2nc(CCc3ccc(Cl)cc3)no2)c1=O [Compound 12, 4-bromo-1-((3-(4-chlorophenethyl)-1,2,4-oxadiazol-5-yl)methyl)-3-methylpyridin-2(1H)-one] | < 3000 nM | –
Cc1cn(Cc2nc(C[C@H](O)c3ccc(Cl)cc3)no2)c(=O)c(C)n1 [Compound 32, (S)-1-((3-(2-(4-chlorophenyl)-2-hydroxyethyl)-1,2,4-oxadiazol-5-yl)methyl)-3,5-dimethylpyrazin-2(1H)-one] | < 1000 nM | –
Cc1ncc(Cl)c(=O)n1Cc1nc(C[C@H](O)c2ccc(Cl)cc2)no1 [Compound 69, (S)-5-chloro-3-((3-(2-(4-chlorophenyl)-2-hydroxyethyl)-1,2,4-oxadiazol-5-yl)methyl)-2-methylpyrimidin-4(3H)-one] | – | < 1000 nM
Nc1ncn(Cc2nc(C[C@H](O)c3ccc(Cl)cc3)no2)c(=O)c1Cl [Compound 72, (S)-6-amino-5-chloro-3-((3-(2-(4-chlorophenyl)-2-hydroxyethyl)-1,2,4-oxadiazol-5-yl)methyl)pyrimidin-4(3H)-one] | – | < 300 nM
Cc1cccn(Cc2nc(CCc3ccc(Cl)cc3)no2)c1=O [Compound 1, 1-((3-(4-chlorophenethyl)-1,2,4-oxadiazol-5-yl)methyl)-3-methylpyridin-2(1H)-one] | < 10000 nM | –
O=c1c(Cl)c(-c2cn[nH]c2)ccn1Cc1nc(C[C@H](O)c2ccc(Cl)cc2)no1 [Compound 74, (S)-3-chloro-1-((3-(2-(4-chlorophenyl)-2-hydroxyethyl)-1,2,4-oxadiazol-5-yl)methyl)-4-(1H-pyrazol-4-yl)pyridin-2(1H)-one] | – | < 1000 nM
Cc1cc(CO)cn(Cc2nc(CCc3ccc(Cl)cc3)no2)c1=O [Compound 16, 1-((3-(4-chlorophenethyl)-1,2,4-oxadiazol-5-yl)methyl)-5-(hydroxymethyl)-3-methylpyridin-2(1H)-one] | < 3000 nM | –

Second part, the compound after the results:

IC50 (Table 4) | IC50 (Table 5) | SMILES
< 1000 nM | – | Cc1c(N)ncn(Cc2nc(C[C@H](O)c3ccc(Cl)cc3)no2)c1=O [Compound 33, (S)-6-amino-3-((3-(2-(4-chlorophenyl)-2-hydroxyethyl)-1,2,4-oxadiazol-5-yl)methyl)-5-methylpyrimidin-4(3H)-one]
< 1000 nM | – | Cc1ncc(C)n(Cc2nc(C[C@H](O)c3ccc(Cl)cc3)no2)c1=O [Compound 31, (S)-1-((3-(2-(4-chlorophenyl)-2-hydroxyethyl)-1,2,4-oxadiazol-5-yl)methyl)-3,6-dimethylpyrazin-2(1H)-one]
< 1000 nM | – | Cc1cc(C#N)cn(Cc2nc(CCc3ccc(Cl)cc3)no2)c1=O [Compound 2, 1-((3-(4-chlorophenethyl)-1,2,4-oxadiazol-5-yl)methyl)-5-methyl-6-oxo-1,6-dihydropyridine-3-carbonitrile]
< 1000 nM | – | N#Cc1cc(Br)c(=O)n(Cc2nc(CCc3ccc(Cl)cc3)no2)c1 [Compound 3, 5-bromo-1-((3-(4-chlorophenethyl)-1,2,4-oxadiazol-5-yl)methyl)-6-oxo-1,6-dihydropyridine-3-carbonitrile]
< 1000 nM | – | Cc1ccc(Cl)c(=O)n1Cc1nc(C[C@H](O)c2ccc(Cl)cc2)no1 [Compound 34, (S)-3-chloro-1-((3-(2-(4-chlorophenyl)-2-hydroxyethyl)-1,2,4-oxadiazol-5-yl)methyl)-6-methylpyridin-2(1H)-one]
< 1000 nM | – | Cc1cc(CC#N)cn(Cc2nc(CCc3ccc(Cl)cc3)no2)c1=O [Compound 19, 2-(1-((3-(4-chlorophenethyl)-1,2,4-oxadiazol-5-yl)methyl)-5-methyl-6-oxo-1,6-dihydropyridin-3-yl)acetonitrile]
< 1000 nM | – | CNC(=O)c1cc(C)c(=O)n(Cc2nc(CCc3ccc(Cl)cc3)no2)c1 [Compound 9, 1-((3-(4-chlorophenethyl)-1,2,4-oxadiazol-5-yl)methyl)-N,5-dimethyl-6-oxo-1,6-dihydropyridine-3-carboxamide]
< 1000 nM | – | Cc1nc(C)c(=O)n(Cc2nc(CCc3ccc(Cl)cc3)no2)c1C [Compound 23, 1-((3-(4-chlorophenethyl)-1,2,4-oxadiazol-5-yl)methyl)-3,5,6-trimethylpyrazin-2(1H)-one]
< 1000 nM | – | Cc1nc(Cl)cn(Cc2nc(CCc3ccc(Cl)cc3)no2)c1=O [Compound 24, 5-chloro-1-((3-(4-chlorophenethyl)-1,2,4-oxadiazol-5-yl)methyl)-3-methylpyrazin-2(1H)-one]
< 300 nM | – | O=c1c(Cl)nc(Br)cn1Cc1nc(C[C@H](O)c2ccc(Cl)cc2)no1 [Compound 21, (S)-5-bromo-3-chloro-1-((3-(2-(4-chlorophenyl)-2-hydroxyethyl)-1,2,4-oxadiazol-5-yl)methyl)pyrazin-2(1H)-one]
